Measured values: patent US4468469A, “Substituted phenylacetic acids and salts as TBP blocking agents in iodothyronine immunoassays” (Miles Laboratories, Inc., priority 1982, dated 1984)

What was measured:
[1] = test system: rabbit antiserum to thyroxine / dihydrofolate reductase; assay: Enzyme inhibitor-labeled immunoassay for thyroxine in serum; format: biochemical; conditions: 0.5 mM fenclofenac in antibody reagent; for Absorbance Change per Minute: 340 nm
Procedure: An enzyme inhibitor-labeled immunoassay (U.S. Pat. No. 4,134,792) for thyroxine in serum was conducted using fenclofenac as the TBP blocking agent. Serum standards in 40 μl aliquots containing known concentrations of thyroxine were combined with 0.2 ml of an antibody reagent consisting of 21 μl rabbit antiserum to thyroxine in 1 ml of 0.1M sodium phosphate buffer, pH 6.5, containing 0.3M potassium chloride, 0.05% sodium azide, and 0.5 mM fencolfenac. After a 30 second incubation, to each mixture was added 0.2 ml of a conjugate reagent consisting of 0.63 mg/ml NADPH (0.65 mM), 0.0175 μM of a methotrexate-thyroxine conjugate [prepared as described in the U.S. patent application filed on even date herewith, assigned to the present assignee, entitled "Methotrexate-LabeledIodothyronine Conjugates Ser. No. 318,028, which application is incorporated herein by reference] in 10 mM sodium carbonate buffer, pH 9.5. […] After a further 5 minute incubation, to each mixture was added 50 μl of 2.5 mM dihydrofolate in 0.1M Tris.HCl, pH 8.5. Forty-five (45) seconds later, the absorbance of each solution at 340 nm was read over a 1 minute period.

[2] = Fluorescence and fluorescence quenching studies (SLFIA conditions); conditions: 10 mM fenclofenac; excitation 400 nm, emission 450 nm, 50 mM Bicine buffer pH 8.3
Procedure: Fluorescence measurements were conducted in 50 mM Bicine buffer (N,N-bis-(2-hydroxyethyl)glycine, Calbiochem-Behring, LaJolla, Calif., USA), pH 8.3, using an Aminco Bowman Fluorometer (American Instruments, Silver Springs, Md., USA), excitation set at 400 nm and emission at 450 nm, which are the fluorescence conditions for the β-galactosyl-umbelliferone enzyme substrate-labeled fluorescent immunoassay (SLFIA) described in U.S. Pat. No. 4,279,992.
Quenching studies were performed by measuring the fluorescence of a 1.3 μM solution of 2-[7-hydroxy-3-carboxamidocoumarin]ethanol (U.S. Pat. No. 4,273,715) in the presence of various levels of fenclofenac. The ratios of observed fluorescence (F) to fluorescence in the absence of fenclofenac (Fo) versus fenclofenac concentration were calculated and are presented in Table 6.

[3] = test system: rabbit antibody to thyroxine; assay: Radioimmunoassay for thyroxine in serum with fenclofenac as TBP blocking agent; format: binding; conditions: 0.67 mM fenclofenac
Procedure: A radioimmunoassay for thyroxine in serum was conducted using fenclofenac as the TBP blocking agent. Serum standards in 100 μl aliquots containing known concentrations of thyroxine were combined with 290 μl of 0.1M sodium phosphate buffer, pH 6.5, an amount of fenclofenac to give a concentration of 0.67 mM in the final assay mixture, 2 μl of rabbit antibody to thyroxine, and a fixed amount of ^125 I-thyroxine (approximately 34,000 counts per minute per 100 μl in the final volume). After incubation at room temperature for 2 hours, 400 μl of 50% (w/v) polyethyleneglycol was added and the resulting precipitates collected by centrifugation. The radioactivity of each precipitate was then measured. The results are shown in Table 3 (μg/dl is micrograms per deciliter).

[4] = test system: anti(thyroxine) antiserum / apoglucose oxidase; assay: Apoenzyme reactivation immunoassay system for serum thyroxine; format: biochemical; conditions: 2 mM sodium salt of dissociating agent in buffer
Procedure: Standard curves for serum thyroxine were generated using a semiautomated assay protocol on the Gilford Clinical Chemistry Analyzer System 203-S (Gilford Instrument Laboratories, Oberline, OH, USA). […] The FAD-thyroxine conjugate (40 nM in 0.1M sodium phosphate, pH 7.0, 0.01% Triton X-100) as a 0.05 ml aliquot was added to the reaction cup and allowed to equilibrate for 30 seconds. The reaction was initiated by addition of 0.10 ml 1.0 μM apoglucose oxidase, 2 mM 4-aminoantipyrine, 12% glycerol, 80 mM sodium phosphate, pH 7.0. The absorbance at 520 nm was recorded after an 8 minute incubation.

antibody to thyroxine = assay: Effect on the binding of 125I-thyroxine with antibody (polyethyleneglycol precipitation); conditions: for Percent 125I-Thyroxine in Precipitate: percent of radioactivity without fenclofenac, 180 min
Procedure: A series of antibody binding reactions were set up in 0.1M sodium phosphate buffer, pH 6.5, to give final volumes of 0.6 ml containing various concentrations of fenclofenac. Each reaction contained ^125 I-thyroxine, 20 μl of normal rabbit immunoglobulin, and 2 μl of antibody to thyroxine. The mixtures were incubated at room temperature for about 3 hours and then 400 μl of 50% (w/v) polyethyleneglycol was added. The precipitated proteins were collected by centrifugation and the radioactivity in each precipitate was measured. The results are shown in Table 2 as percent of the radioactivity in the precipitate without fenclofenac.

[5] = test system: antiserum to thyroxine / phosphodiesterase; assay: Enzyme substrate-labeled immunoassay for thyroxine; format: biochemical; conditions: 75 μl of 60 mM fenclofenac
Procedure: The following reagents were assembled:
Reagent A: 50 mM Bicine buffer with 0.1% sodium azide, pH 8.5
Reagent B: 60 mM fenclofenac in 0.5N sodium hydroxide
Reagent C: thyroxine standards with concentrations of 0, 2, 4, 6, 8, 10, 12, 16 and 20 μg/dl prepared by adding thyroxine (Sigma) to thyroxine free serum.
Reagent D: antibody/enzyme reagent containing 50 μl antiserum per ml and 0.12 units per ml of phosphodiesterase (Sigma, Type VII) in Bicine buffer.
Reagent E: 1.24 μM of the labeled conjugate (Part A above) in 5 mM formate, 0.1% sodium azide buffer, pH 3.5.
The assay protocol involved adding 75 μl of Reagent B and 0.5 ml of Reagent A to a cuvette, followed by 75 μl of an appropriate Reagent C and another 0.5 ml of Reagent A, and finally 75 μl of Reagent D and a third 0.5 ml of Reagent A. After a 1 hour incubation at room temperature, the assay reaction was started by adding 75 μl of Reagent E and 0.5 ml of Reagent A to the cuvette. The fluorescence (excitation=360 nm, emission=450 nm) was measured 20 minutes after addition of Reagent E.

O=C(O)Cc1ccccc1Oc1ccc(Cl)cc1Cl [Fenclofenac, 2-(2,4-dichlorophenoxy)phenylacetic acid]
interference with the spectrophotometric response at 340 nm or the enzymatic reaction [1]: did not substantially interfere
Absorbance Change per Minute ([1]; thyroxine standard 0 μg/dL): 0.1682
Absorbance Change per Minute ([1]; thyroxine standard 1.0 μg/dL): 0.1659
Absorbance Change per Minute ([1]; thyroxine standard 2.5 μg/dL): 0.1648
Absorbance Change per Minute ([1]; thyroxine standard 10. μg/dL): 0.1571
Absorbance Change per Minute ([1]; thyroxine standard 20. μg/dL): 0.1498
own fluorescence [2]: did not exhibit any fluorescence
Counts per Minute in Precipitate ([3]; thyroxine standard 0 μg/dl): 23,700 Counts per Minute
Counts per Minute in Precipitate ([3]; thyroxine standard 1.0 μg/dl): 21,800 Counts per Minute
Counts per Minute in Precipitate ([3]; thyroxine standard 2.5 μg/dl): 17,300 Counts per Minute
Counts per Minute in Precipitate ([3]; thyroxine standard 5.0 μg/dl): 14,400 Counts per Minute
Counts per Minute in Precipitate ([3]; thyroxine standard 10.0 μg/dl): 10,000 Counts per Minute
Counts per Minute in Precipitate ([3]; thyroxine standard 20.0 μg/dl): 7,500 Counts per Minute
Absorbance (520 nm) ([4]; Thyroxine Standard 0 μg/L): 0.797
Absorbance (520 nm) ([4]; Thyroxine Standard 25 μg/L): 0.823
Absorbance (520 nm) ([4]; Thyroxine Standard 75 μg/L): 0.893
Absorbance (520 nm) ([4]; Thyroxine Standard 125 μg/L): 0.965
Absorbance (520 nm) ([4]; Thyroxine Standard 200 μg/L): 1.078
Percent 125I-Thyroxine in Precipitate (antibody to thyroxine; 0.2 mM fenclofenac): 97%
Percent 125I-Thyroxine in Precipitate (antibody to thyroxine; 0.5 mM fenclofenac): 80%
Percent 125I-Thyroxine in Precipitate (antibody to thyroxine; 1.0 mM fenclofenac): 69%
Percent 125I-Thyroxine in Precipitate (antibody to thyroxine; 2.5 mM fenclofenac): 61%
Percent 125I-Thyroxine in Precipitate (antibody to thyroxine; 5.0 mM fenclofenac): 43%
inhibition of the antibody binding reaction (antibody to thyroxine; concentrations below about 2.5 mM): about 40%
inhibition of the antibody binding reaction (antibody to thyroxine; concentrations below about 5 mM): about 50%
fluorescence units ([5]; thyroxine standard 0 μg/dl, excitation 360 nm, emission 450 nm): 24.9 fluorescence units
fluorescence units ([5]; thyroxine standard 2 μg/dl): 25.5 fluorescence units
fluorescence units ([5]; thyroxine standard 4 μg/dl): 26.4 fluorescence units
fluorescence units ([5]; thyroxine standard 6 μg/dl): 27.2 fluorescence units
fluorescence units ([5]; thyroxine standard 8 μg/dl): 26.7 fluorescence units
fluorescence units ([5]; thyroxine standard 10 μg/dl): 27.1 fluorescence units
fluorescence units ([5]; thyroxine standard 12 μg/dl): 30.0 fluorescence units
fluorescence units ([5]; thyroxine standard 16 μg/dl): 30.1 fluorescence units
fluorescence units ([5]; thyroxine standard 20 μg/dl): 30.8 fluorescence units
